Experiments:
[1] = Solubility in water and culture medium; assay type: physicochemical; conditions: physiological pH
[2] = Light-induced isomerization of Caf, analysis by HPLC; assay type: physicochemical; conditions: for isomer composition after irradiation with green light (HPLC): green LED light, λ=520 nm, after UV irradiation; for isomer composition before irradiation (HPLC): ground state, prior to irradiation
Method: 500 μl of a 60 μM solution of Caf (7) in water was placed in a 1.5 ml HPLC vial (Screw neck vial N9, amber glass, 11.6×32 mm; Macherey Nagel, Duren, Germany) and irradiated with a UV LED (λ=353 nm, NS355L-5RLO; Nitride Semiconductors, Tokushima, Japan) for 30 min directly from the top. Before and after irradiation, a 20 μl sample of the solution was withdrawn and analyzed by HPLC on a Purospher RP-8e 250×3 mm column (Merck), applying a concentration gradient of 10-12% acetonitrile (ACN) in 50 mM NH4OAc buffer pH 8 over 10 min (flow rate 0.6 ml/min). Another sample was analyzed in the same manner after irradiation with green LED light (λ=520 nm, LL-504PGC2E-G5-2CC, Lucky Light Electronics, Hongkong, China). […] The chromatograms reveal that the cis and trans isomers of (7) can be separated by HPLC (cis-(7) tR=3.6 min, trans-(7) tR=4.6 min). […] However, it should be taken into account that also during HPLC analysis reisomerization of cis-(7) to trans-(7) takes place, so the proportion of cis-(7) after irradiation with UV light might actually be higher than indicated by HPLC chromatograms. Thus, if the light-switchable polypeptide of the present invention is applied for an affinity chromatography procedure, and the trans configuration corresponds to the high affinity state whereas the cis configuration corresponds to the low affinity conformation, then the highest degree of binding and the highest degree of elution of the molecule of interest takes place at 430 nm and 330 nm, respectively. However, conventional light sources usually provide light having wavelengths that are around 530 nm (visible light) and 365 nm (UV light). Therefore, also light providing these wavelengths (i.e. around 530 nm and/or around 365 nm) may be used in accordance with the present invention.

[3] = Light-induced isomerization of Caf, analysis by UV-VIS spectroscopy; assay type: physicochemical; conditions: 30 μM aqueous solution; alternating UV and green LED irradiation over 3 cycles
From the text: The electronic transition π→π* is usually in the near UV region around 340 nm (Sension et al. 1993 J. Chem. Phys. 98: 6291-6315) whereas the electronic transition n→π* is usually located in the visible (VIS) region around 420 nm and is due to the presence of unshared electron pairs of the nitrogen atoms (Naegele et al. 1997 Chem. Phys. Lett. 272: 489-495). To examine whether the synthesized non-natural amino acid Caf (7) can respond to photoswitching induced by UV light, the compound was subjected to alternating irradiation cycles. In a typical experiment, 0.5 ml of a 30 μM aqueous solution was placed in a quartz cuvette with 1 cm optical pathlength. Then the sample was irradiated for 30 min from the top using a UV LED (NS355L-5RLO; Nitride Semiconductors, Tokushima, Japan) with 353 nm or a green LED (LL-504PGC2E-G5-2CC; Lucky Light Electronics, Hongkong, China) with 520 nm emitting wavelength. The change in intensity of the π-π* band at around 340 nm corresponding to the trans/cis isomerization (FIG. 4A) was monitored with a computer controlled photometer (Ultrospec 2100 pro, Amersham Biosciences).

[4] = prior art amino acid; cited from earlier work

| solubility in water and LB culture medium [1] | isomer composition after irradiation with UV light (HPLC) ([2]; after irradiation with UV light) | proportion of cis-(7) ([2]; after irradiation with UV light for 30 min, 60 μM in water, HPLC at 286 nm) | isomer composition after irradiation with green light (HPLC) [2] | isomer composition after irradiation with green light (HPLC) ([2]; listed as 7) | isomer composition before irradiation (HPLC) [2] | isomer composition before irradiation (HPLC) ([2]; listed as 7) | photoswitching between trans and cis configuration (absorbance at about 340 nm) [3] | Structure (SMILES) | solubility in water as well as culture media [4] |
| --- | --- | --- | --- | --- | --- | --- | --- | --- | --- |
| good solubility | mostly cis isomer | up to 86% | recovering the ground state | mostly trans isomer | only energetically favored trans-(7) | essentially pure trans isomer | reversible photoswitching | N[C@@H](Cc1ccc(N=Nc2ccc(C(=O)O)cc2)cc1)C(=O)O [Caf, 4-[(4-carboxyphenyl)azo]-L-phenylalanine] |  |
| good solubility |  |  |  |  |  |  |  | N[C@@H](Cc1ccc(N=Nc2cccc(C(=O)O)c2)cc1)C(=O)O [3′-carboxyphenylazophenylalanine, 4-[(3-Carboxyphenyl)azo]-L-phenylalanine] |  |
|  |  |  |  |  |  |  |  | N[C@@H](Cc1ccc(N=Nc2ccccc2)cc1)C(=O)O [AzoPhe] | extremely poor solubility |

Reference: patent US20210079037A1, “LIGHT-SWITCHABLE POLYPEPTIDE AND USES THEREOF” (TECHNISCHE UNIVERSITÄT MÜNCHEN, priority 2017, published 2021)
